Source: ChEMBL document CHEMBL5696439 (Cancer Res, 2010)
Values after ≈ are worked out from the molar mass of the structure shown. Blank lines part the entries; values can stand above or below the molecule they belong to. Active and inactive are the calls of the source. The calls are words filed in the database; no cut-off is given here.

How the values were obtained:
MDA-MB-361 [1] = assay: Induction of apoptosis in human MDA-MB-361 cells assessed as increase in caspase-3/caspase-7 activity at 1 to 6 uM incubated for 24 to 48 hrs; format: functional, cell-based; details: dose 1-6 µM, time 24-48 hrs
MDA-MB-361 [2] = assay: Induction of apoptosis in human MDA-MB-361 cells assessed as little increase in G1 phase at 5 micromol/L incubated for 12 hrs by FACS analysis relative to control; format: functional, cell-based; details: dose 5.0 µmol/L
LNCaP [3] = assay: Induction of apoptosis in human LNCaP cells assessed as increase in caspase-3/caspase-7 activity at 1 to 6 uM incubated for 24 to 48 hrs; format: functional, cell-based; details: dose 1-6 µM, time 24-48 hrs
MDA-MB-361 [4] = assay: Induction of apoptosis in human MDA-MB-361 cells assessed as increase in G1 phase at 5 micromol/L incubated for 24 hrs by FACS analysis relative to control; format: functional; details: dose 5 µmol/L, at 5 µM
MDA-MB-361 [5] = assay: Induction of apoptosis in HER2 hyperactive human MDA-MB-361 cells assessed as cell death at 0.001 to 100 micromol/L incubated for 24 hrs by FACS analysis; format: functional, cell-based; details: dose 0.001-100 µmol/L
[6] = biological target: T1, Serine/threonine-protein kinase mTOR (Homo sapiens, UniProt P42345); assay: Inhibition of mTOR in human MDA-MB-361 cells assessed as 4EBP1 phosphorylation at T37/46 level at 1 micromol/L incubated 16 hrs by westernblot analysis; format: cell-based; details: dose 1.0 µmol/L
MDA-MB-361 [7] = assay: Induction of apoptosis in human MDA-MB-361 cells assessed as PARP cleavage at 0.5 to 5 micromol/L incubated for 48 hrs by Western blot analysis; format: functional, cell-based; details: dose 0.5-5 µmol/L
MDA-MB-361 [8] = assay: Induction of apoptosis in PI3K/mTOR hyperactive human MDA-MB-361 cells assessed as massive cell death at 0.001 to 100 micromol/L incubated for 48 hrs by FACS analysis; format: functional, cell-based; details: dose 0.001-100 µmol/L
[9] = biological target: T1, Serine/threonine-protein kinase mTOR; assay: Inhibition of mTOR in human MDA-MB-361 cells assessed as 4EBP1 phosphorylation at T70 level at 1 micromol/L incubated 16 hrs by westernblot analysis; format: cell-based; details: dose 1.0 µmol/L
U-87 MG [10] = assay: Antitumor activity against human U-87MG cells assessed as reduction in lactate production at 1 micromol/L incubated for 24 hrs relative to control; format: functional, U-87MG ATCC; parameters: scale not given: the % may be the effect or the level left; details: dose 1 µmol/L, at 1 µM
MDA-MB-361 [11] = assay: Antitumor activity against human MDA-MB-361 cells assessed as reduction in oxygen consumption rate at 1 micromol/L incubated for 1 hrs relative to control; format: functional; parameters: scale not given: the % may be the effect or the level left; details: dose 1 µmol/L, at 1 µM
U-87 MG [12] = assay: Antiproliferative activity against human U-87MG cells assessed as suppression in cell growth at 10 micromol/L incubated for 3 days by MTS assay relative to control; format: functional, U-87MG ATCC; details: dose 10 µmol/L; time 3 day; at 10 µM
MDA-MB-361 [13] = assay: Inhibition of protein synthesis in human MDA-MB-361 cells at 3 micromol/L incubated for 3 hrs by [3H] methionine incorporation based scintillation counter analysis; format: functional, cell-based; details: dose 3.0 µmol/L
A549 [14] = assay: Antitumor activity against VHL null-human A549 cells xenografted in female nude mouse model assessed as inhibition in tumor growth at 25 mg/kg, iv administered 5 times a week; format: functional, organism-based
MDA-MB-361 [15] = assay: Induction of apoptosis in PI3K/mTOR hyperactive human MDA-MB-361 cells assessed as cell death at 0.001 to 100 micromol/L incubated for 24 hrs by FACS analysis; format: functional, cell-based; details: dose 0.001-100 µmol/L
U-87 MG [16] = assay: Antitumor activity against human U-87MG cells assessed as lactate production incubated for 24 hrs; format: functional, cell-based; details: U-87MG ATCC, dose 0.01-10 µmol/L
HEK293 = assay: Antiproliferative activity against HEK293 cells assessed as reduction in polysomes at 0.5 micromol/L incubated for 16 hrs; format: functional, Homo sapiens; details: dose 0.5 µmol/L
A549 [17] = assay: Antiproliferative activity against human A549 cells assessed as suppression in cell growth at 10 micromol/L incubated for 3 days by MTS assay relative to control; format: functional; details: dose 10 µmol/L; time 3 day; at 10 µM
[18] = biological target: T1, Serine/threonine-protein kinase mTOR; assay: Inhibition of mTOR in human MDA-MB-361 cells assessed as 4EBP1 phosphorylation at S65 level at 1 micromol/L incubated 16 hrs by westernblot analysis; format: cell-based; details: dose 1.0 µmol/L
A498 [19] = assay: Antiproliferative activity against human A498 cells assessed as reduction in cell size at 1 micromol/L incubated for 48 hrs by Flow cytometry analysis relative to control; format: functional; parameters: scale not given: the % may be the effect or the level left; details: dose 1 µmol/L, at 1 µM
MDA-MB-361 [20] = assay: Antiproliferative activity against human MDA-MB-361 cells assessed as suppression in cell growth at 10 micromol/L incubated for 3 days by MTS assay relative to control; format: functional; details: dose 10 µmol/L; time 3 day; at 10 µM
A498 [21] = assay: Antiproliferative activity against human A498 cells assessed as suppression in cell growth at 10 micromol/L incubated for 3 days by MTS assay relative to control; format: functional; details: dose 10 µmol/L; time 3 day; at 10 µM
A549 [22] = assay: Antitumor activity against human A549 cells xenografted in female nude mouse model assessed as substantial regression in large tumor growth at 200 mg/kg, iv administered once a week; format: functional, organism-based
LNCaP [23] = assay: Antiproliferative activity against human LNCaP cells assessed as suppression in cell growth at 10 micromol/L incubated for 3 days by MTS assay relative to control; format: functional; details: dose 10 µmol/L; time 3 day; at 10 µM
MDA-MB-361 [24] = assay: Induction of apoptosis in HER2 hyperactive human MDA-MB-361 cells assessed as massive cell death at 0.001 to 100 micromol/L incubated for 48 hrs by FACS analysis; format: functional, cell-based; details: dose 0.001-100 µmol/L
A498 [25] = assay: cells; details: Homo sapiens, A498, 48 h
Description: Antiproliferative activity against human A498 cells assessed as cell growth inhibition incubated for 2 days by MTS assay

MDA-MB-361 [26] = assay: Antiproliferative activity against human MDA-MB-361 cells assessed as cell growth inhibition incubated for 1 days by MTS assay; format: functional, cell-based; details: MDA-MB-361, 24 h
MDA-MB-361 [27] = assay: Antiproliferative activity against human MDA-MB-361 cells assessed as cell growth inhibition incubated for 2 days by MTS assay; format: functional, cell-based; details: MDA-MB-361, 48 h
A498 [28] = assay: cells; details: Homo sapiens, A498, 72 h
Description: Antiproliferative activity against human A498 cells assessed as cell growth inhibition incubated for 3 days by MTS assay

MDA-MB-361 [29] = assay: Antiproliferative activity against human MDA-MB-361 cells assessed as cell growth inhibition incubated for 3 days by MTS assay; format: functional, cell-based; details: MDA-MB-361, 72 h
A498 [30] = assay: cells; details: Homo sapiens, A498, 24 h
Description: Antiproliferative activity against human A498 cells assessed as cell growth inhibition incubated for 1 days by MTS assay

SMILES: Oc1cccc(-c2nc(N3CCOCC3)c3oc4ncccc4c3n2)c1 [PI-103]
Activity (MDA-MB-361 [1]): Active | Activity (MDA-MB-361 [2]): Active | Activity (LNCaP [3]): Active | Activity (MDA-MB-361 [4]): 27%

inhibition [6]: inactive | inhibition [9]: Active | inhibition [18]: Active
SMILES: CO[C@H]1C[C@@H]2CC[C@@H](C)[C@@](O)(O2)C(=O)C(=O)N2CCCC[C@H]2C(=O)O[C@H]([C@H](C)C[C@@H]2CC[C@@H](OC(=O)C(C)(CO)CO)[C@H](OC)C2)CC(=O)[C@H](C)/C=C(\C)[C@@H](O)[C@@H](OC)C(=O)[C@H](C)C[C@H](C)/C=C/C=C/C=C/1C [TEMSIROLIMUS]
Activity (MDA-MB-361 [5]): inactive | Activity (MDA-MB-361 [7]): inactive | Activity (MDA-MB-361 [8]): inactive | Activity (U-87 MG [10]): 80% | Activity (MDA-MB-361 [11]): 82% | Activity (U-87 MG [12]): <=50% | inhibition (MDA-MB-361 [13]): inactive | inhibition (A549 [14]): Active | Activity (MDA-MB-361 [15]): inactive | Activity (U-87 MG [16]): Dose-Dependent Effect | Activity (HEK293): 1.02 | Activity (A549 [17]): <=50% | Activity (A498 [19]): 97% | Activity (MDA-MB-361 [20]): <=50% | Activity (A498 [21]): <=50% | Activity (A549 [22]): inactive | Activity (LNCaP [23]): <=50% | Activity (MDA-MB-361 [24]): inactive

IC50 (A498 [25]): > 0.15 µg/mL | IC50 (MDA-MB-361 [26]): > 0.15 µg/mL | IC50 (MDA-MB-361 [27]): > 0.15 µg/mL | IC50 (A498 [28]): 0.03 µg/mL (≈ 0.0351 µM) | IC50 (MDA-MB-361 [29]): 0.004 µg/mL (≈ 0.00468 µM) | IC50 (A498 [30]): > 0.15 µg/mL
SMILES: CC(=O)O[C@H]1C(=O)[C@@]2(C)[C@H]([C@H](OC(=O)c3ccccc3)[C@]3(O)C[C@H](OC(=O)[C@H](O)[C@@H](NC(=O)c4ccccc4)c4ccccc4)C(C)=C1C3(C)C)[C@]1(OC(C)=O)CO[C@@H]1C[C@@H]2O [PACLITAXEL]
